Experimental findings from patent publication US11458132B2, “Quinolin-2(1H)-one inhibitors of Late SV40 Factor” (TRUSTEES OF BOSTON UNIVERSITY, priority 2020, dated 2022) are described below.

One assay concerns Huh7 cells. The experiment in a line: Growth inhibition curves in Huh7 cells. In kind it is cell-based. The following applies: Homo sapiens, Huh-7.
The subject of the next assay is colorectal cancer tumor. The experiment in a line: Colorectal cancer tumor size and tumor tissue, FIGS. 22-24. The following applies: 15 mg/kg treatment compared with the other concentration. The assay is classed as in vivo, mouse.
In a further assay the test system is MC38 cells. The assay is described as follows: Syngeneic MC38 xenograft model in C57BL/6 mice. The assay is classed as in vivo. The text has this:
Syngeneic and allogeneic xenograft models: We used 8-12 weeks-old athymic female mice for the allogeneic xenograft model and C57BL/6 mice for a syngeneic xenograft model, as described previously^26,27. All the mice were obtained from The Jackson Laboratory and housed at Boston University Medical Center based on the approval from the Institutional Animal Care and Use Committee. Each mouse was implanted subcutaneously on the dorsal surface and was monitored for tumor growth as measured with a VWR Digital Caliper. The tumor volume was calculated twice a week using the equation: length×width×height.
The mice were randomly separated into two groups once tumor volumes reached 100 mm^3. The FQI2-34 was suspended in a mixture of ethanol and DMSO. The mixture was agitated until the compound had completely dissolved. This solution was further diluted in 20% PEG 400 and water to give a final concentration of 2 mg/ml. FQI2-34 or vehicle was injected intraperitoneally daily at 5 mg/kg for 5 days, followed by a break for 2 days. After 21 days, both groups of mice were sacrificed, and the tumors were harvested.
Cell culture and other reagents: HT-29 cells were obtained from ATCC and grown in the Roswell Park Memorial Institute (RPMI) medium supplemented with 10% FBS and penicillin and streptomycin. Cells were injected with the growth-factor poor Matrigel (Millipore, catalogue number DLW354263) using a 23-gauge needle for a total volume of 200 microliters. The MC38 cell line was obtained from ATCC and grown in RPMI medium supplemented with 10% FBS and penicillin and streptomycin.
IHC was performed on the paraffin-embedded tumors as described previously^26-28. The manufacturer's protocol was used along with reagents from the Abcam Mouse and Rabbit Specific HRP/DAB IHC Detection Kit—Micro-polymer (ab236466). Primary antibodies and their dilutions used to detect the respective proteins were: Axin2 (Abcam, #ab32197, 1:100), β-catenin (BD Biosciences, #610154, 1:100), LSF (BD Biosciences, #610818, 1:100), SOX9 (Abcam, #ab185230, 1:100), Ki-67 (Cell Signaling, #8D5, 1:100).
All images and quantification were performed using the Nikon Eclipse TE2000 Inverted Microscope with the color camera at the Boston University School of Medicine (BUSM) Imaging Core. Random high-power field (hpf) images of every tumor sample were obtained. For quantification the signal was converted to grayscale, and the number and intensity of pixels were analyzed as integrated density by using Fiji. The integrated density of all the images was normalized to its area. The images were processed in ImageJ (National Institutes of Health, Bethesda, Md.) to quantitate the expression of SOX-9, AXIN-2, and LSF. Regions of interest were drawn and the expression was measured using integrated density normalized to the surface area. The average normalized integrated image densities from multiple hpfs were used to perform the correlational analysis between expression levels of pairs of proteins.

A further assay relates to FH-B cells. The experiment in a line: Cell motility tracking. In kind it is cell-based, human. The settings on record: thymidine block, 4 μM FQI1. The protocol: (§1) Cell motility tracking: After overnight seeding in high μ-dishes, cells were synchronized by incubating in 2 mM thymidine for 18-20 hours. Thereafter, cells were treated with 4 μM FQI1 or vehicle (0.01% DMSO) for 1 hour, followed by a 10-min incubation in NucSpot® Live 650 dye (Biotium, 40082) following the manufacturer's instructions. Subsequently, cells were imaged every 2 minutes for 2 hours in an environmental chamber of a Nikon C2 Si microscope at 37° C. and 5% CO2 at 20× magnification. Cells that underwent mitosis during the 2-hour period were excluded from the analysis. Using ImageJ, individual nuclei were monitored using the Manual Tracking tool and the distances between starting and end points were integrated into swarmplots using Python's seaborn library.

Assay [1] relates to RPE cells. The assay is described as follows: Analysis of microtubule features by immunofluorescence. In kind it is cell-based. The protocol: Analysis of microtubule features by immunofluorescence: Because Y-27632 diminishes FQI1-induced cell compaction (FIGS. 10C and 10D) without affecting microtubule levels (FIGS. 9A and 9B), cells were pretreated with Y-27632 in order to maintain overall cellular shape, facilitating capture of structural or positional impact of FQI1 on microtubules. In addition, only cells with cell spreading areas larger than 1000 μm^2 were considered. Cells were seeded overnight in high n-dishes, treated as indicated in the figure legends, fixed with formaldehyde as described above, blocked in 5% BSA in PBS and stained overnight at 4° C. with anti-γ-tubulin (1:500, Abcam, ab11316) and anti-α-tubulin (1:500, Fisher Scientific, 62204). Samples were then incubated in goat anti-rabbit Cy5 (1:1000, Invitrogen, A10523), goat anti-mouse Alexa Fluor 546 (1:1000, Thermo Fisher Scientific, A11003), and Phalloidin-iFluor 488 Reagent. Hoechst 33342 and mounting medium were applied, before acquiring Z stack images at 60× magnification on an Olympus Fluoview 10i microscope.
Using ImageJ, binary Z projections of Phalloidin and Hoechst channel stacks were merged with Z projections with average intensity of the α-tubulin channels. The Phalloidin channel was used as the region of interest for measurement of “integrated density” of the total α-tubulin intensity, which was plotted into swarmplots.
To assess distribution of visible microtubule ends, the Hoechst, γ-tubulin, and α-tubulin stacks were converted into Z projections with maximum intensity. The Hoechst and γ-tubulin Z projections were thresholded and all channels were merged. A line was generated between the γ-tubulin signal and the center of the nucleus to identify the axis of cell movement; a line perpendicular to the first line and running through the center point of the nucleus divided the cell into posterior and anterior portions. Visible microtubule ends were counted using the Cell Counter plugin, excluding unattached microtubule fragments.

For assay [2], the system named is RPE cells. The experiment in a line: Cell motility tracking. In kind it is cell-based. The following applies: thymidine block, 4 μM FQI1; not statistically significant. The protocol:
as §1

The mark [3] stands for this setting: xenografts, immunohistochemistry.

In the assay on Huh7 cells, `CCOc1cc(N(C)C)ccc1-c1cc(=O)[nH]c2cc3c(cc12)OCO3` [FQI2-34, 8-(4-(dimethylamino)-2-ethoxyphenyl)-[1,3]dioxolo[4,5-g]quinolin-6(5H)-one] registered a GI50 of 22.2 nM. The “effectiveness on colorectal cancer tumor size versus time” value in the assay on colorectal cancer tumor is “not as effective”. Moreover, in the assay on MC38 cells (day 14 and day 21), the “tumor volumes, lower than controls” value is reported as roughly 2 fold. In the assay on MC38 cells (xenografts), the “CRC mass on H&E stain” value is given as “substantial reduction in CRC mass”. Moreover, in the assay on MC38 cells (setting [3]), the Ki-67 levels result is “suppressed”, the “reduction in AXIN2 expression levels” value was roughly 2 fold, the “reduction in SOX9 expression levels” value was roughly 2 fold and the “reduction in number of cells with nuclear β-catenin” value was 2.3 fold.

On to `CCOc1ccccc1C1CC(=O)Nc2cc3c(cc21)OCO3` (stereo not shown) [FQI1, 8-(2-ethoxyphenyl)-7,8-dihydro-[1,3]dioxolo[4,5-g]quinolin-6(5H)-one], for which the results for the “cell displacement over a 2-hour period” value with FH-B cells and in the assay on RPE cells [2] were “significantly smaller range of motion” and “clear trend towards motility being reduced”, respectively. Moreover, in the assay with RPE cells [1] (4 μM FQI1), the “front-rear pattern of visible microtubule ends” value was “shifted to a more anterior distribution”. The “overall α-tubulin intensity” value with RPE cells [1] (4 μM FQI1, 10 minutes, Y-27632 pretreated) is “significant decrease in overall α-tubulin intensity”. Besides, the “increase in the number of individually discernible microtubule ends” value in the assay with RPE cells [1] (4 μM FQI1, 10 minutes, vs vehicle) worked out at 2.5 fold.
